The structures appear in SMILES notation.

Results on ten compounds are retold here after ChEMBL document CHEMBL5291721, “A preclinical secondary pharmacology resource illuminates target-adverse drug reaction associations of marketed drugs” (Nat Commun, 2023).

Experiment [1] deals with 3',5'-cyclic-AMP phosphodiesterase 4D (Homo sapiens, UniProt Q08499). Type of experiment: functional.
The target of the next experiment is Histamine H1 receptor (Homo sapiens, UniProt P35367).
In a further experiment the target is T1, Glucocorticoid receptor (Homo sapiens, UniProt P04150).
T1 sequence (P04150 whole entry): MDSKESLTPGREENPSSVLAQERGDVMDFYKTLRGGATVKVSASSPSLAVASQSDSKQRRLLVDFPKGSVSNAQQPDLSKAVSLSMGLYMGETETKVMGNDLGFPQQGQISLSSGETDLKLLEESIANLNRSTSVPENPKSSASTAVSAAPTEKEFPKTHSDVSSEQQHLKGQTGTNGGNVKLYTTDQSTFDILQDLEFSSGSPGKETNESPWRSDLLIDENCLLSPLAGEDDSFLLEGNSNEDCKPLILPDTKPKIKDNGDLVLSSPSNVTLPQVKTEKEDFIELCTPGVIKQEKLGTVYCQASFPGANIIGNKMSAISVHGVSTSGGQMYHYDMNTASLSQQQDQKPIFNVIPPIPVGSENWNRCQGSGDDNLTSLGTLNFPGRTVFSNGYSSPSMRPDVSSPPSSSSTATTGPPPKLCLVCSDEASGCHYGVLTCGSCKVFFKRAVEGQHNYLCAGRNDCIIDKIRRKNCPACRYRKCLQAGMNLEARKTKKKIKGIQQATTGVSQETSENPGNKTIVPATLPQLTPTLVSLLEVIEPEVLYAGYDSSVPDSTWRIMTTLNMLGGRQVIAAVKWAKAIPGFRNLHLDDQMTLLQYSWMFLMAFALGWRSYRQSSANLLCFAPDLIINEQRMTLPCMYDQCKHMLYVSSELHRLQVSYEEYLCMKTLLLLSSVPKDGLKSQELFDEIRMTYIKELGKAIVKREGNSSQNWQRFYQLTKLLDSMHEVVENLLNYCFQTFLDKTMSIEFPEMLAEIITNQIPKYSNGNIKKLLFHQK

Experiment [2] addresses T2, Type-1 angiotensin II receptor (Homo sapiens, UniProt P30556).
T2 sequence (P30556 whole entry): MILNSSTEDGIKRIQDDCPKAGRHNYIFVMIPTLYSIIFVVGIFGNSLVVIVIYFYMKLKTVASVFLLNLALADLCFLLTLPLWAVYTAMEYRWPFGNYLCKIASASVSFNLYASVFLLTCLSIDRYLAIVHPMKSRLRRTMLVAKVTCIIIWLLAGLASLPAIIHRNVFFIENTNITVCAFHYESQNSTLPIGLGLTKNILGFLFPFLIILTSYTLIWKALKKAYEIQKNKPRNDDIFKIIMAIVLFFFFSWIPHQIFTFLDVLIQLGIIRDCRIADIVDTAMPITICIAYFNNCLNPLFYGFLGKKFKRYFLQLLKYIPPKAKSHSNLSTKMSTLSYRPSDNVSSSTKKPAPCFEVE

Another experiment deals with Vasopressin V2 receptor (Homo sapiens, UniProt P30518).
Sequence of Vasopressin V2 receptor (P30518 whole entry): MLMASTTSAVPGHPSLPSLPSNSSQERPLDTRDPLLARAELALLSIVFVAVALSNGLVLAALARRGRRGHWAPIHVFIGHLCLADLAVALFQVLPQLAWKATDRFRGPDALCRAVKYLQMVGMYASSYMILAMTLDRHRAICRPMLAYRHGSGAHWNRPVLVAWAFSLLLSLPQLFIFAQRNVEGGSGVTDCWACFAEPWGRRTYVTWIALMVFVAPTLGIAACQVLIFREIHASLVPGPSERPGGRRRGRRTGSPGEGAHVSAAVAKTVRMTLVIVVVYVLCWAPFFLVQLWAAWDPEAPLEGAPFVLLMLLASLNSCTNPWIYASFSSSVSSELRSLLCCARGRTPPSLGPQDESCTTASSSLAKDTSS
A further experiment has as its target Cannabinoid receptor 1 (Homo sapiens, UniProt P21554). Type of experiment: functional, cell-based.
For experiment [3], the target named is T3, Gamma-aminobutyric acid receptor subunit alpha-1 (Rattus norvegicus, UniProt P62813). Type of experiment: functional.
T3 sequence (P62813 whole entry): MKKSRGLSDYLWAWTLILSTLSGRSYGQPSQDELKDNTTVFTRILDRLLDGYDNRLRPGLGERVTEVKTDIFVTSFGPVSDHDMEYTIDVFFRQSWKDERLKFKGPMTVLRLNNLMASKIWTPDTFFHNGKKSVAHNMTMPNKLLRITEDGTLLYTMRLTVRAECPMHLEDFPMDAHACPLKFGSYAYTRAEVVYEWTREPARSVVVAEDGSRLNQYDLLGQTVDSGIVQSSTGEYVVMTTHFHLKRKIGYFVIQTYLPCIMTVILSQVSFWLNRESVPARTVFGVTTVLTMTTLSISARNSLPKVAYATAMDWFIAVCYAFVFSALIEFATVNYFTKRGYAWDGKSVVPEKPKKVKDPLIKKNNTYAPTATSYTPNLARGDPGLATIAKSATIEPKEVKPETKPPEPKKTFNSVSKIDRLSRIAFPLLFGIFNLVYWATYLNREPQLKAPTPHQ
Experiment [4] concerns the target T3, Gamma-aminobutyric acid receptor subunit alpha-1.
For another experiment, the target named is T4, Adenosine receptor A1 (Homo sapiens, UniProt P30542).
T4 sequence (P30542 whole entry): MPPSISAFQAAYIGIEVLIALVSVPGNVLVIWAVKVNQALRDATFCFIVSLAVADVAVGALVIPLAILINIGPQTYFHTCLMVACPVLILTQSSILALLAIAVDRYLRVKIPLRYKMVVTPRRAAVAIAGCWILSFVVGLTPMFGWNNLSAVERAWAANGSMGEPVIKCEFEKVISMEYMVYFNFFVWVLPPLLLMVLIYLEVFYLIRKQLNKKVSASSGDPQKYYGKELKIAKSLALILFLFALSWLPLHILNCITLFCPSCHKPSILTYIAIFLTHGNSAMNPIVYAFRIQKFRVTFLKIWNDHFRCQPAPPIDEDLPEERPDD

The target in experiment [5] is 5-hydroxytryptamine receptor 2B (Homo sapiens, UniProt P41595). Type of experiment: functional, cell-based.
Sequence of 5-hydroxytryptamine receptor 2B (P41595 whole entry): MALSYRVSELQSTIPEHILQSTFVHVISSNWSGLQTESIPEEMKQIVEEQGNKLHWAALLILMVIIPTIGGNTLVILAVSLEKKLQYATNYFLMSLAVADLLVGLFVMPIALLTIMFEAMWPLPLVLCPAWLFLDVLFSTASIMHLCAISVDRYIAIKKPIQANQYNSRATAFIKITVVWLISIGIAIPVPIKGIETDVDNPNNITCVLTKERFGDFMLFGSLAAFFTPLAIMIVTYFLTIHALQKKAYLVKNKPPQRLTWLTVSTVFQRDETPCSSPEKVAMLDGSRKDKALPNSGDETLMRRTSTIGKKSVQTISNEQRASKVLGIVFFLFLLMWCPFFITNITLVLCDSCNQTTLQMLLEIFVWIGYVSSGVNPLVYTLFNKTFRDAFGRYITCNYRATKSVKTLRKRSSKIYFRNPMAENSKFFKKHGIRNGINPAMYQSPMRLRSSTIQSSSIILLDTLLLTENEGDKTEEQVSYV
Another experiment has as its target T5, Endothelin-1 receptor (Homo sapiens, UniProt P25101).
T5 sequence (P25101 whole entry): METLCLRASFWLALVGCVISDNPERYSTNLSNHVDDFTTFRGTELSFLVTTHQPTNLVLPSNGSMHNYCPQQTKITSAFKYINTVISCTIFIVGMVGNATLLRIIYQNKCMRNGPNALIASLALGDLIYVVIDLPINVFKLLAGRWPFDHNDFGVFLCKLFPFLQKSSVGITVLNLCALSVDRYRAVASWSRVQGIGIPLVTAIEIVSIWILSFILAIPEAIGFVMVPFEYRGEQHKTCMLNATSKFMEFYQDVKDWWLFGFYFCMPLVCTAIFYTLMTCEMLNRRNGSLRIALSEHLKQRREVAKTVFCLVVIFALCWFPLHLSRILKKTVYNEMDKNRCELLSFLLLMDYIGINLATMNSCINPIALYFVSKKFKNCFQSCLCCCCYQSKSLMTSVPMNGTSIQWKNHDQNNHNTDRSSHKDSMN

Experiment [6] has as its target T6, Muscarinic acetylcholine receptor M2 (Homo sapiens, UniProt P08172).
T6 sequence (P08172 whole entry): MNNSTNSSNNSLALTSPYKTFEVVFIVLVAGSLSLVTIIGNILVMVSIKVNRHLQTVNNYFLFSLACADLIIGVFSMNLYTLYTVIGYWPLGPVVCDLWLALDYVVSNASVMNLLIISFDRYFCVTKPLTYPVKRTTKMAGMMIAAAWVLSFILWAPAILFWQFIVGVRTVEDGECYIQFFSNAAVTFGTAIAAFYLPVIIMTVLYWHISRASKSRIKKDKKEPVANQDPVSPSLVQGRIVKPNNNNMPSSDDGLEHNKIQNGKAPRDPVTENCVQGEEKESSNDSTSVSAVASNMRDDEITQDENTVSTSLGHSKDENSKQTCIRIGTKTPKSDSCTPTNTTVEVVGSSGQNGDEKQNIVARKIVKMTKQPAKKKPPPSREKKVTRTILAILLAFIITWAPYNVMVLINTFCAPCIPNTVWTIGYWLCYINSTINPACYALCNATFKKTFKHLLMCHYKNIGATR
Type of experiment: functional, cell-based.
Note: assay procedure not described here.

Sequence of Histamine H1 receptor (P35367 whole entry): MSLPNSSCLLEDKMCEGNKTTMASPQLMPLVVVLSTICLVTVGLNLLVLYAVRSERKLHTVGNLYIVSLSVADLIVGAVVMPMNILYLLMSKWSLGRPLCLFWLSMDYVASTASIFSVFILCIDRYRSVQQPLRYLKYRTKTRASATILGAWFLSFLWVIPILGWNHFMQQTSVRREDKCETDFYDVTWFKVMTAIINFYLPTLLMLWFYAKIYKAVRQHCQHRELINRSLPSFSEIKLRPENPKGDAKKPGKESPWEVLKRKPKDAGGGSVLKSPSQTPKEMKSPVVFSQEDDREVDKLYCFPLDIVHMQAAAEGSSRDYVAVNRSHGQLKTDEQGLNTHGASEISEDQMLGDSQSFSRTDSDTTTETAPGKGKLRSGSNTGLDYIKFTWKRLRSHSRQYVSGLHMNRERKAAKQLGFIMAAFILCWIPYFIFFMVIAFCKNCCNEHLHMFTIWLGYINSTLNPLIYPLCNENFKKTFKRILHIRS
Sequence of Cannabinoid receptor 1 (P21554 whole entry): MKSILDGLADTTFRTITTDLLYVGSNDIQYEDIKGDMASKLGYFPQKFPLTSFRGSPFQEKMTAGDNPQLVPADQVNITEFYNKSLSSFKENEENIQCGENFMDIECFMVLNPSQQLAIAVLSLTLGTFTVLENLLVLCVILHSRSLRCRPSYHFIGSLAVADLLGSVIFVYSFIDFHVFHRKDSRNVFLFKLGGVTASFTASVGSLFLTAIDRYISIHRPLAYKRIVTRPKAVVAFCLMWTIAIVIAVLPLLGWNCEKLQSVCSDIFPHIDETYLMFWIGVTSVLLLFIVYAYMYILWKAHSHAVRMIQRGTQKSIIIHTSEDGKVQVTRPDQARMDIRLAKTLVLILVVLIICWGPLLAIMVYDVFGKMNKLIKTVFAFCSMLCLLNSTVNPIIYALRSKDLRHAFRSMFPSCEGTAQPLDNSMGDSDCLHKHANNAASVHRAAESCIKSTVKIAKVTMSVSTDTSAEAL
Sequence of 3',5'-cyclic-AMP phosphodiesterase 4D (Q08499 whole entry): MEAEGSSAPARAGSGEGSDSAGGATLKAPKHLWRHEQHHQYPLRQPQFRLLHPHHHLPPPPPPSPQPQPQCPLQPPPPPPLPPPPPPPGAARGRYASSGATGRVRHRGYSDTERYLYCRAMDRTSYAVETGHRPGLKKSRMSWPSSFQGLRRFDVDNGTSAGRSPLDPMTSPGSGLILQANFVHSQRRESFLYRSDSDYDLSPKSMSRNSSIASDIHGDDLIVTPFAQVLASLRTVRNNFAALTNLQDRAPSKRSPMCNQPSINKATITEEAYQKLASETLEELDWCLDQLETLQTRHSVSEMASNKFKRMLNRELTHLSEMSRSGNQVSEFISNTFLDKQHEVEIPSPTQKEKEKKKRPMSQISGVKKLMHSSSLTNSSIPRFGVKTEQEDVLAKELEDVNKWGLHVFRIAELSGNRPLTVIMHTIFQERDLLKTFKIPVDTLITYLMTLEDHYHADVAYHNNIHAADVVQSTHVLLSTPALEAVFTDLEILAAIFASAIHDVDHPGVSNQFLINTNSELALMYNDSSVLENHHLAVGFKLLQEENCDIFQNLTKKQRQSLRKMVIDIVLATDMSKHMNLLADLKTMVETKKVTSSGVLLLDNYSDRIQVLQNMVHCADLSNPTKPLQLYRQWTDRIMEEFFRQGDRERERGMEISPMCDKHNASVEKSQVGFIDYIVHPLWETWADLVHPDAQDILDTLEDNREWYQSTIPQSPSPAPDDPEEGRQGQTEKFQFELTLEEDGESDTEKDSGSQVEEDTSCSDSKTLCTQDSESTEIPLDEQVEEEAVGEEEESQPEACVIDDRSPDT

For `NS(=O)(=O)c1ccc(N2CCCCS2(=O)=O)cc1`, the AC50 (in [1]; at Histamine H1 receptor; on Glucocorticoid receptor; in experiment [2]; on Vasopressin V2 receptor; on Cannabinoid receptor 1) was over 30 µM in each case. The AC50 (in [3]; in experiment [4]; at Adenosine receptor A1; in experiment [5]; at Endothelin-1 receptor; in experiment [6]) was over 30 µM in each case.
Consider `CCCO[C@H]1[C@@H]([C@@H](COCc2ccc(Cl)cc2)OCc2ccc(Cl)cc2)OC(OCC)[C@@H]1O` (stereo not given in full) [CLOBENOSIDE], for which the AC50 (in [1]; on Histamine H1 receptor; at Glucocorticoid receptor; in experiment [2]; at Vasopressin V2 receptor; on Cannabinoid receptor 1) was over 30 µM each time. Also, the AC50 (in [3]; in experiment [4]; at Adenosine receptor A1; in experiment [5]; at Endothelin-1 receptor; in experiment [6]) was over 30 µM in each case.
For `CC1=C(/C=C/C(C)=C/C=C/C(C)=C/C(=O)Oc2c(C)c(C)c3c(c2C)CCC(C)(CCCC(C)CCCC(C)CCCC(C)C)O3)C(C)(C)CCC1` (stereo not given) [TRETINOIN TOCOFERIL], the AC50 (in experiment [1]; at Histamine H1 receptor; at Glucocorticoid receptor; in experiment [2]; on Vasopressin V2 receptor; on Cannabinoid receptor 1) was over 30 µM each time. Besides, the AC50 (in experiment [3]; in experiment [4]; on Adenosine receptor A1; in experiment [5]; at Endothelin-1 receptor; in [6]) was over 30 µM in each case.
In the case of `CCN(CC)Cc1nccn1-c1ccc([N+](=O)[O-])cc1C(=O)c1ccccc1Cl` [NIZOFENONE], the AC50 (in experiment [1]; on Histamine H1 receptor; on Glucocorticoid receptor; in [2]; at Vasopressin V2 receptor; at Cannabinoid receptor 1) was over 30 µM throughout. The AC50 (in [3]; in experiment [4]; at Adenosine receptor A1; in experiment [5]; at Endothelin-1 receptor; in experiment [6]) was over 30 µM throughout.
For `COc1ccc(C(Cl)=C(c2ccc(OC)cc2)c2ccc(OC)cc2)cc1` [CHLOROTRIANISENE], the AC50 (in [1]; at Histamine H1 receptor; at Glucocorticoid receptor; in [2]; on Vasopressin V2 receptor; on Cannabinoid receptor 1) was over 30 µM throughout. The AC50 (in experiment [3]; in [4]; at Adenosine receptor A1; in experiment [5]; at Endothelin-1 receptor; in [6]) was over 30 µM throughout.
For `CCCCCCCC(=O)CC[C@@H]1[C@@H](C/C=C\CCCC(=O)O)[C@@H](O)C[C@H]1O` [UNOPROSTONE], the AC50 (in [1]; at Histamine H1 receptor; at Glucocorticoid receptor; in experiment [2]; at Vasopressin V2 receptor; at Cannabinoid receptor 1) was over 30 µM each time. Moreover, the AC50 (in experiment [3]; in experiment [4]; on Adenosine receptor A1; in [5]; on Endothelin-1 receptor; in [6]) was over 30 µM throughout.
Consider `CCC(=O)O[C@H](CC(=O)O)C[N+](C)(C)C` [LEVOCARNITINE PROPIONATE], for which the concentration at half-maximal activity (AC50) (in [1]; at Histamine H1 receptor; at Glucocorticoid receptor; in experiment [2]; at Vasopressin V2 receptor; on Cannabinoid receptor 1) was over 30 µM throughout. For the same compound, the AC50 (in experiment [3]; in [4]; on Adenosine receptor A1; in experiment [5]; at Endothelin-1 receptor; in [6]) was over 30 µM in each case.
For the compound `CN1C(=O)CN=C(c2ccccc2F)c2cc([N+](=O)[O-])ccc21` [FLUNITRAZEPAM], the AC50 in experiment [1] was over 30 µM; at Histamine H1 receptor, over 10 µM; at Glucocorticoid receptor, over 30 µM; in experiment [2], over 30 µM; on Vasopressin V2 receptor, over 30 µM; at Cannabinoid receptor 1, over 30 µM. In addition, the AC50 in experiment [3] is 0.0055 µM; in experiment [4], over 10 µM; at Adenosine receptor A1 it was over 30 µM; in experiment [5], over 10 µM; at Endothelin-1 receptor it was over 30 µM; in [6], over 10 µM.
Take `Oc1cc(O)c2c(c1)O[C@H](c1ccc(O)c(O)c1)[C@@H](O)C2` [CIANIDANOL]: the AC50 in [1] is over 30 µM; at Histamine H1 receptor, over 10 µM; on Glucocorticoid receptor it was over 30 µM; in experiment [2] it was over 30 µM; on Vasopressin V2 receptor, over 30 µM; on Cannabinoid receptor 1, over 30 µM. Further, the AC50 in experiment [3] was over 10 µM; in experiment [4], over 10 µM; on Adenosine receptor A1 it was over 30 µM; in experiment [5], over 10 µM; at Endothelin-1 receptor, over 30 µM; in experiment [6] it was over 10 µM.
With `COC(=O)c1ccc2c(c1)NC(=O)/C2=C(\Nc1ccc(N(C)C(=O)CN2CCN(C)CC2)cc1)c1ccccc1` [NINTEDANIB], the AC50 (in experiment [1]; on Histamine H1 receptor; on Glucocorticoid receptor; in experiment [2]; at Vasopressin V2 receptor; on Cannabinoid receptor 1) was over 30 µM throughout. Besides, the AC50 (in experiment [3]; in experiment [4]; at Adenosine receptor A1; in experiment [5]; at Endothelin-1 receptor; in [6]) was over 30 µM each time.

As a reminder, the AC50 is the concentration at which the activity in the assay is half-maximal.
